# Assay results taken from ChEMBL document CHEMBL4417631, “Oral peptide inhibitors of interleukin-23 receptor and their use to treat inflammatory bowel diseases” (2017).
# pIC50: −log10 of the molar value. *1 amine or outer side, *2 acyl side, *3 side chain or, on linkers, in order; H or OH if unused. Where a SMILES comes first, the peptide text is derived from it. Bridges are numbered along the chain shown (N, C = ends). [ ]: non-standard residue; d: D form. Abu(4-yl) = O=C([C@H](CC[*:3])N[*:1])[*:2]; 2Nal = N[C@@H](Cc1ccc2ccccc2c1)C(=O)O; AEF = NCCOc1ccc(C[C@H](N)C(=O)O)cc1; αMeK = C[C@](N)(CCCCN)C(=O)O
# Columns and labels:
# [1] = molecular target: T1, Interleukin-23 receptor (Homo sapiens, UniProt Q5VWK5); assay: Inhibition of interleukin-23 binding to human interleukin-23 receptor incubated for 2 hrs by competitive binding ELISA
# T1 sequence (Q5VWK5 whole entry): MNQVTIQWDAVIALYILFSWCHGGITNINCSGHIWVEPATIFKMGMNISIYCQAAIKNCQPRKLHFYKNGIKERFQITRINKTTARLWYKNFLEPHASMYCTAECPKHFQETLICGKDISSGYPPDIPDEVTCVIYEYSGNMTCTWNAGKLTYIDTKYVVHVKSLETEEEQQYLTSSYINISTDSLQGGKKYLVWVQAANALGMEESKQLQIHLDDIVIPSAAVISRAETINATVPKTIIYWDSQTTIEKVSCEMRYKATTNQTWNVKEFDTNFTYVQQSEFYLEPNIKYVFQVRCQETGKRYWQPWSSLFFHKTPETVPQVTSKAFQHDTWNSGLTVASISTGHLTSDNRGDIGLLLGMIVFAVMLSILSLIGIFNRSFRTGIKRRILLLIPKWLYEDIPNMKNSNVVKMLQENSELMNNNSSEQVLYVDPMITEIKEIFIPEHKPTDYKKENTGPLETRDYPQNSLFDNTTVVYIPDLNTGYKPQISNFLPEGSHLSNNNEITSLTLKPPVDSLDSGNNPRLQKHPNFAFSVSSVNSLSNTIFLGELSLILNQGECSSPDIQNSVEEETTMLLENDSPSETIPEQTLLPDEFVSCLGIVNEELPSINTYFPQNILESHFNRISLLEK
# [2] = molecular target: T1, Interleukin-23 receptor; assay: Inhibition of interleukin-23 receptor in human DB cells assessed as reduction in IL-23-stimulated STAT3 phosphorylation incubated for 30 mins by HTRF assay; format: cell-based
# [3] = molecular target: T1, Interleukin-23 receptor; assay: Inhibition of interleukin-23 receptor in human natural killer cells assessed as reduction in IL23/IL18-induced IFNgamma production incubated for 20 to 24 hrs by ELISA; format: cell-based
# [4] = Inhibition of interleukin-23 binding to rat interleukin-23 receptor incubated for 2 hrs by competitive binding ELISA
# [5] = Half life in simulated intestinal fluid at 20 uM by LC-MS/MS analysis; format: ADME
# [6] = Half life in simulated gastric fluid at 20 uM by LC-MS/MS analysis; format: ADME
Compound,pIC50 [1],pIC50 [2],pIC50 [3],pIC50 [4],half-life at 20 µM [5] [h],half-life at 20 µM [6] [h]
COc1ccc(C[C@H](NC(=O)[C@@H]2CSCC[C@H](NC(C)=O)C(=O)N[C@@H](CCC(N)=O)C(=O)N[C@@H]([C@@H](C)O)C(=O)N[C@@H](Cc3c[nH]c4ccccc34)C(=O)N[C@@H](CCC(N)=O)C(=O)N2)C(=O)N[C@@H](Cc2ccc3ccccc3c2)C(=O)N[C@@](C)(CCCCNC(=O)COCC(=O)NCCCC[C@](C)(NC(=O)[C@H](Cc2ccc3ccccc3c2)NC(=O)[C@H](Cc2ccc(OC)cc2)NC(=O)[C@@H]2CSCC[C@H](NC(C)=O)C(=O)N[C@@H](CCC(N)=O)C(=O)N[C@@H]([C@@H](C)O)C(=O)N[C@@H](Cc3c[nH]c4ccccc34)C(=O)N[C@@H](CCC(N)=O)C(=O)N2)C(=O)N[C@@H](CCC(=O)O)C(=O)N[C@@H](CC(N)=O)C(=O)NCC(N)=O)C(=O)N[C@@H](CCC(=O)O)C(=O)N[C@@H](CC(N)=O)C(=O)NCC(N)=O)cc1,> 8.00,> 8.00,> 7.60,7.60 to 8.00,,
COc1ccc(C[C@H](NC(=O)[C@@H](NC(=O)[C@H](CCC(N)=O)NC(=O)[C@H](Cc2c[nH]c3ccccc23)NC(=O)[C@@H](NC(=O)[C@H](CC(N)=O)NC(=O)[C@@H](NC(=O)[C@@H](Cc2ccccc2)NC(C)=O)C(C)(C)S)[C@@H](C)O)C(C)(C)S)C(=O)N[C@@H](Cc2ccc3ccccc3c2)C(=O)NC2(C(=O)N[C@@H](CCCNC(N)=O)C(=O)N[C@@H](CC(N)=O)C(=O)N[C@@H](CC(N)=O)C(N)=O)CCCCC2)cc1,,,> 8.00,,,
COc1ccc(C[C@H](NC(=O)[C@@H](NC(=O)[C@H](CCC(N)=O)NC(=O)[C@H](Cc2c[nH]c3ccccc23)NC(=O)[C@@H](NC(=O)[C@H](CCC(N)=O)NC(=O)[C@@H](NC(C)=O)C(C)(C)S)[C@@H](C)O)C(C)(C)S)C(=O)N[C@@H](Cc2ccc3ccccc3c2)C(=O)N[C@@](C)(CCCCN)C(=O)N[C@@H](CCCCNC(C)=O)C(=O)N[C@@H](CC(N)=O)C(=O)N[C@@H](CC(N)=O)C(N)=O)cc1,,> 8.00,> 8.00,,,
COc1ccc(C[C@H](NC(=O)[C@@H](NC(=O)[C@H](CCC(N)=O)NC(=O)[C@H](Cc2c[nH]c3ccccc23)NC(=O)[C@@H](NC(=O)[C@H](CC(N)=O)NC(=O)[C@@H](NC(=O)[C@@H](Cc2ccccc2)NC(C)=O)C(C)(C)S)[C@@H](C)O)C(C)(C)S)C(=O)N[C@@H](Cc2ccc3ccccc3c2)C(=O)NC2(C(=O)N[C@@H](CCCNC(N)=O)C(=O)N[C@@H](CC(N)=O)C(=O)N[C@@H](CC(N)=O)C(N)=O)CCOCC2)cc1,,,> 8.00,,,
COc1ccc(C[C@H](NC(=O)[C@@H]2CSCC[C@H](NC(C)=O)C(=O)N[C@@H](CCC(N)=O)C(=O)N[C@@H]([C@@H](C)O)C(=O)N[C@@H](Cc3c[nH]c4ccccc34)C(=O)N[C@@H](CCC(N)=O)C(=O)N2)C(=O)N[C@@H](Cc2cccc3ccccc23)C(=O)N[C@@](C)(CCCCN)C(=O)N[C@@H](CCCCNC(C)=O)C(=O)N[C@@H](CC(N)=O)C(=O)NCC(N)=O)cc1,7.00 to 7.60,7.60 to 8.00,,7.00 to 7.60,> 6,< 1
CC(=O)N[C@H]1CCSC[C@@H](C(=O)N[C@@H](Cc2ccc(O)cc2)C(=O)N[C@@H](Cc2ccc3ccccc3c2)C(=O)N[C@@](C)(CC(C)C)C(=O)N[C@@H](CCC(=O)O)C(=O)N[C@@H](CC(N)=O)C(=O)NCC(N)=O)NC(=O)[C@H](CCC(N)=O)NC(=O)[C@H](Cc2c[nH]c3ccccc23)NC(=O)[C@H]([C@@H](C)O)NC(=O)[C@H](CCC(N)=O)NC1=O,7.60 to 8.00,> 8.00,> 7.60,7.60 to 8.00,< 1,
COc1ccc(C[C@H](NC(=O)[C@H](Cc2ccc(OCCN)cc2)NC(=O)[C@@H]2CSCC[C@H](NC(C)=O)C(=O)N[C@@H](CCC(N)=O)C(=O)N[C@@H]([C@@H](C)O)C(=O)N[C@@H](Cc3c[nH]c4ccccc34)C(=O)N[C@@H](CCC(N)=O)C(=O)N2)C(=O)N[C@@](C)(CCCCN)C(=O)N[C@@H](CCCCNC(C)=O)C(=O)N[C@@H](CC(N)=O)C(=O)NCC(N)=O)cc1OC,7.60 to 8.00,> 8.00,> 7.60,7.00 to 7.60,,
COc1ccc(C[C@H](NC(=O)[C@@H]2CSCC[C@H](NC(=O)[C@@H](CCCCNC(=O)COCC(=O)NCCCC[C@@H](NC(C)=O)C(=O)N[C@H]3CCSC[C@@H](C(=O)N[C@@H](Cc4ccc(OC)cc4)C(=O)N[C@@H](Cc4ccc5ccccc5c4)C(=O)N[C@@](C)(CC(C)C)C(=O)N[C@@H](CCC(=O)O)C(=O)N[C@@H](CC(N)=O)C(=O)NCC(N)=O)NC(=O)[C@H](CCC(N)=O)NC(=O)[C@H](Cc4c[nH]c5ccccc45)NC(=O)[C@H]([C@@H](C)O)NC(=O)[C@H](CCC(N)=O)NC3=O)NC(C)=O)C(=O)N[C@@H](CCC(N)=O)C(=O)N[C@@H]([C@@H](C)O)C(=O)N[C@@H](Cc3c[nH]c4ccccc34)C(=O)N[C@@H](CCC(N)=O)C(=O)N2)C(=O)N[C@@H](Cc2ccc3ccccc3c2)C(=O)N[C@@](C)(CC(C)C)C(=O)N[C@@H](CCC(=O)O)C(=O)N[C@@H](CC(N)=O)C(=O)NCC(N)=O)cc1,> 8.00,> 8.00,,7.00 to 7.60,1 to 2,< 1
CC(=O)NCCCC[C@H](NC(=O)C(C)(C)NC(=O)[C@H](Cc1ccc2ccccc2c1)NC(=O)[C@H](Cc1ccc(C(N)=O)cc1)NC(=O)[C@@H](NC(=O)[C@H](CCC(N)=O)NC(=O)[C@H](Cc1c[nH]c2ccccc12)NC(=O)[C@@H](NC(=O)[C@H](CC(N)=O)NC(=O)[C@@H](NC(C)=O)C(C)(C)S)[C@@H](C)O)C(C)(C)S)C(=O)N[C@@H](CC(N)=O)C(=O)N[C@@H](CC(N)=O)C(N)=O,,,> 8.00,,1 to 2,3 to 6
COc1ccc(C[C@H](NC(=O)[C@@H]2CSCC[C@H](NC(C)=O)C(=O)N[C@@H](CCC(N)=O)C(=O)N[C@@H]([C@@H](C)O)C(=O)N[C@@H](Cc3c[nH]c4ccccc34)C(=O)N[C@@H](CCC(N)=O)C(=O)N2)C(=O)N[C@@H](Cc2ccc3ccccc3c2)C(=O)N[C@@](C)(CCCCN)C(=O)N[C@@H](CCCCNC(C)=O)C(=O)N[C@@H](CC(N)=O)C(=O)NCC(N)=O)cc1,> 8.00,> 8.00,,7.60 to 8.00,3 to 6,< 1
CC(=O)N[C@H](CCC(=O)O)C(=O)N[C@H]1CCSC[C@@H](C(=O)N[C@@H](Cc2ccc(OCCN)cc2)C(=O)N[C@@H](Cc2ccc3ccccc3c2)C(=O)N[C@@](C)(CCCCN)C(=O)N[C@@H](CCC(=O)O)C(=O)N[C@@H](CC(N)=O)C(=O)N[C@@H](CC(N)=O)C(N)=O)NC(=O)[C@H](CCC(N)=O)NC(=O)[C@H](Cc2c[nH]c3ccccc23)NC(=O)[C@H]([C@@H](C)O)NC(=O)[C@H](CCC(N)=O)NC1=O,> 8.00,> 8.00,,> 8.00,> 6,1 to 2
CC(=O)N[C@@H](CCC(=O)O)C(=O)N[C@H]1CCSC[C@@H](C(=O)N[C@@H](Cc2ccc(OCCN)cc2)C(=O)N[C@@H](Cc2ccc3ccccc3c2)C(=O)N[C@@](C)(CCCCN)C(=O)N[C@@H](CCC(=O)O)C(=O)N[C@@H](CC(N)=O)C(=O)N[C@@H](CC(N)=O)C(N)=O)NC(=O)[C@H](CCC(N)=O)NC(=O)[C@H](Cc2c[nH]c3ccccc23)NC(=O)[C@H]([C@@H](C)O)NC(=O)[C@H](CCC(N)=O)NC1=O,> 8.00,> 8.00,,> 8.00,> 6,2 to 3
CC(=O)N[C@@H](CC(C)C)C(=O)N[C@H]1CCSC[C@@H](C(=O)N[C@@H](Cc2ccc(OCCN)cc2)C(=O)N[C@@H](Cc2ccc3ccccc3c2)C(=O)N[C@@](C)(CCCCN)C(=O)N[C@@H](CCC(=O)O)C(=O)N[C@@H](CC(N)=O)C(=O)N[C@@H](CC(N)=O)C(N)=O)NC(=O)[C@H](CCC(N)=O)NC(=O)[C@H](Cc2c[nH]c3ccccc23)NC(=O)[C@H]([C@@H](C)O)NC(=O)[C@H](CCC(N)=O)NC1=O (Ac-L[Abu(4-yl)]QTWQC[AEF][2Nal][αMeK]ENN-NH2; thioether 2-7),> 8.00,> 8.00,,> 8.00,> 6,2 to 3
COc1ccc(C[C@H](NC(=O)[C@@H]2CSCC[C@H](NC(C)=O)C(=O)N[C@@H](CCC(N)=O)C(=O)N[C@@H]([C@@H](C)O)C(=O)N[C@@H](Cc3c[nH]c4ccccc34)C(=O)N[C@@H](CCC(N)=O)C(=O)N2)C(=O)N[C@@H](Cc2ccc3ccccc3c2)C(=O)N[C@@](C)(CCCN)C(=O)N[C@@H](CCCCNC(C)=O)C(=O)N[C@@H](CC(N)=O)C(=O)NCC(N)=O)cc1,7.60 to 8.00,> 8.00,,7.60 to 8.00,2 to 3,< 1
CC(=O)NCCCC[C@H](NC(=O)[C@](C)(CCCCN)NC(=O)[C@H](Cc1ccc2ccccc2c1)NC(=O)[C@H](Cc1ccc(C(N)=O)cc1)NC(=O)[C@@H](NC(=O)[C@H](CCC(N)=O)NC(=O)[C@H](Cc1c[nH]c2ccccc12)NC(=O)[C@@H](NC(=O)[C@H](CCC(N)=O)NC(=O)[C@@H](NC(C)=O)C(C)(C)S)[C@@H](C)O)C(C)(C)S)C(=O)N[C@@H](CC(N)=O)C(=O)N[C@@H](CC(N)=O)C(N)=O,,> 8.00,> 8.00,7.00 to 7.60,,
